# Laboratory results as given in US20240150377A1, “MODULATORS OF CYSTIC FIBROSIS TRANSMEMBRANE CONDUCTANCE REGULATOR” (VERTEX PHARMACEUTICALS INCORPORATED, priority 2020, published 2024).
# Where two headings read alike, the source gives them in different places.
# Target: CFTR (Homo sapiens, UniProt P13569)
# Assay: Membrane potential dye, Enteroid Assay A
# Assay type: cell-based
# Conditions: for Ent. A Max Activity: chloride transport as % of triple combination control (Enteroid Assay A); for EC50: human enteroid cells, 18-24 hours, acute 10 μM forskolin and 300 nM ivacaftor, read-out: Ent. A EC50
# Method in brief: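 Human intestinal enteroids incubated 18-24 h at 37 °C with test compound, then loaded with 20 μM methyl oxonol (with CaCC inhibitors). Chloride transport triggered in chloride-free buffer with 10 μM forskolin, 100 μM IBMX, 300 nM Compound III; fluorescence read 15 min, expressed as % of a triple-combination corrector/potentiator control.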
# Sequence of CFTR (P13569 with tags, fused parts or gaps DEL508-508): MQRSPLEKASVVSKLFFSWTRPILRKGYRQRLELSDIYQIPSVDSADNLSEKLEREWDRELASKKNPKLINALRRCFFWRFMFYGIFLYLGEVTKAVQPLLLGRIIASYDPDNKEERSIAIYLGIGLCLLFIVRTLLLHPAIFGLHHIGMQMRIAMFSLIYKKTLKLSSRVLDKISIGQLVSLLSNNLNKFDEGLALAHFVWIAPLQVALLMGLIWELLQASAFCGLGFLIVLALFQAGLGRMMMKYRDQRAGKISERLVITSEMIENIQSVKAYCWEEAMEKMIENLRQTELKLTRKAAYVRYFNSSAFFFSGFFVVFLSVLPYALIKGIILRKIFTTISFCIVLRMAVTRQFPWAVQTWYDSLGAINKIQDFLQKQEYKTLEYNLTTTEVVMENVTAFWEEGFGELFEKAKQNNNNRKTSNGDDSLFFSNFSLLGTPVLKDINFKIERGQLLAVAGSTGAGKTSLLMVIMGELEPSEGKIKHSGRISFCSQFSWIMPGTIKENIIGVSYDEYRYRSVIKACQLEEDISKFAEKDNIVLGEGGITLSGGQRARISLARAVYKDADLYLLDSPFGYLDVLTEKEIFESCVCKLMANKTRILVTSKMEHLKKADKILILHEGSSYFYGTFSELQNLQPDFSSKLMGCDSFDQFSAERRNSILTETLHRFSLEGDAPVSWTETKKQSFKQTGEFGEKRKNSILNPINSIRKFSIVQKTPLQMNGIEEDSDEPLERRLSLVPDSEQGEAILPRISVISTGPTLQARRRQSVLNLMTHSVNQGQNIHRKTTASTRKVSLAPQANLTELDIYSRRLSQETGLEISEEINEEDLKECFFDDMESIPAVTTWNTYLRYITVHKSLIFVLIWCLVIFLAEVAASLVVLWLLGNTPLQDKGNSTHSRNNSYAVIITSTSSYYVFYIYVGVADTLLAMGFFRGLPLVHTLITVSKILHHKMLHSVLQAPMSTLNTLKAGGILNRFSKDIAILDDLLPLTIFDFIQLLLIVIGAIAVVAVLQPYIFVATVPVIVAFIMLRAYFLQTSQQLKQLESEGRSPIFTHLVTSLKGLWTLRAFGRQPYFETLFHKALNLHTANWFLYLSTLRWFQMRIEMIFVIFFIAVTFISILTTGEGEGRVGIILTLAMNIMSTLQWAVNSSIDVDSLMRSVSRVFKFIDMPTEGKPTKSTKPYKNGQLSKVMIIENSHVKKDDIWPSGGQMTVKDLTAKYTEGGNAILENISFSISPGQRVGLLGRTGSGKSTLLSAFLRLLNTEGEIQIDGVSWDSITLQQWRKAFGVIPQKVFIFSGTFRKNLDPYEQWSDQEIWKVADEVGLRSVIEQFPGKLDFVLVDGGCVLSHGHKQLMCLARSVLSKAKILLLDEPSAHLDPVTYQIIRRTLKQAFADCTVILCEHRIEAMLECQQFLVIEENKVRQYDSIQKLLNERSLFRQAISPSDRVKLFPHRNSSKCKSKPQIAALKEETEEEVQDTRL
Structure (SMILES),Ent. A Max Activity (Table 7),EC50 (Table 7) [µM],Ent. A Max Activity (Table 6),EC50 (Table 6) [µM]
COc1ccc(CN2C(=O)c3cccc(c3)S(=O)(=O)Nc3nc(cc(-c4c(C)cccc4C)n3)OC[C@H]2CC(C)C)cn1 [Compound 422],,,+++ (+++ is >60%),< 1
COCCOCCN1C(=O)c2cccc(c2)S(=O)(=O)Nc2nc(cc(-c3c(C)cccc3C)n2)OC[C@H]1CC(C)C [Compound 424],,,+++ (+++ is >60%),< 1
Cc1cccc(C)c1-c1cc2nc(n1)NS(=O)(=O)c1cccc(c1)C(=O)N(CC1CCN(C)CC1)[C@H](CC(C)(C)C)CO2 [Compound 426],,,+++ (+++ is >60%),1 to 3
Cc1cccc(C)c1-c1cc2nc(n1)NS(=O)(=O)c1cccc(c1)C(=O)N(CCC(C)(C)C)[C@H](CC(C)C)CO2 [Compound 429],,,+++ (+++ is >60%),< 1
Cc1cc(CN2C(=O)c3cccc(c3)S(=O)(=O)Nc3nc(cc(-c4c(C)cccc4C)n3)OC[C@H]2CC(C)C)[nH]n1 [Compound 430],,,+++ (+++ is >60%),< 1
Cc1cccc(C)c1-c1cc2nc(n1)NS(=O)(=O)c1cccc(c1)C(=O)N(C)CC(c1ccc(-c3ccc(C(C)(C)C)cc3)cn1)O2 (stereo not shown) [Compound 511],,,+++ (+++ is >60%),< 1
Cc1cccc(C)c1-c1cc2nc(n1)NS(=O)(=O)c1cccc(c1)C(=O)N(Cc1ccccc1)C(C(=O)NC1CCCCC1)CO2 (stereo not shown) [Compound 515],,,+ (+ is <30%),1 to 3
Cc1cccc(C)c1-c1cc2nc(n1)NS(=O)(=O)c1cccc(c1)C(=O)N(C)CC(c1ccc(C#N)cc1)O2 (stereo not shown) [Compound 667],,,++ (++ is 30-60%),1 to 3
Cc1cccc(C)c1-c1cc2nc(n1)NS(=O)(=O)c1cccc(c1)C(=O)N(C)CC(c1ccc(C3=CCOCC3)cc1)O2 (stereo not shown) [Compound 670],++ (++ is 30-60%),1 to 3,,
Cc1cccc(C)c1-c1cc2nc(n1)NS(=O)(=O)c1cccc(c1)C(=O)N(C)C[C@H](c1ccccc1)O2 [Compound 672],,,++ (++ is 30-60%),< 1
Cc1cccc(C)c1-c1cc2nc(n1)NS(=O)(=O)c1cccc(c1)C(=O)N(C)C[C@H](c1ccccc1)O2 [Compound 673],,,+ (+ is <30%),3 to 30
Cc1cccc(C)c1-c1cc2nc(n1)NS(=O)(=O)c1cccc(c1)C(=O)N(C)CC(c1ccc(C3=CCN(C)CC3)cc1)O2 (stereo not shown) [Compound 676],,,++ (++ is 30-60%),3 to 30
Cc1cccc(C)c1-c1cc2nc(n1)NS(=O)(=O)c1cccc(c1)C(=O)N(C)CC(c1ccccc1)O2 (stereo not shown) [Compound 677],,,+++ (+++ is >60%),< 1
COc1ccc(CN2C(=O)c3cccc(c3)S(=O)(=O)Nc3nc(cc(-c4c(C)cccc4C)n3)OC[C@H]2CC2(C(F)(F)F)CC2)cc1 [Compound 678],++ (++ is 30-60%),< 1,,
Cc1cccc(C)c1-c1cc2nc(n1)NS(=O)(=O)c1cccc(c1)C(=O)N(CCC1CCOCC1)[C@H](CC1(C(F)(F)F)CC1)CO2 [Compound 680],+ (+ is <30%),< 1,,
Cc1cccc(C)c1-c1cc2nc(n1)NS(=O)(=O)c1cccc(c1)C(=O)N(CCC1CCOCC1)[C@H](CC1(C(F)(F)F)CC1)CO2 [Compound 681],+++ (+++ is >60%),< 1,,
CNC(=O)c1ccc(CN2C(=O)c3cccc(c3)S(=O)(=O)Nc3nc(cc(-c4c(C)cccc4C)n3)OC[C@H]2CC2(C(F)(F)F)CC2)cc1 [Compound 682],+ (+ is <30%),1 to 3,,
Cc1cccc(C)c1-c1cc2nc(n1)NS(=O)(=O)c1cccc(c1)C(=O)N(Cc1ccccc1)C(CCC1(C(F)(F)F)CC1)CO2 (stereo not shown) [Compound 689],,,+++ (+++ is >60%),< 1

# Now from value to compound:
Ent. A Max Activity (Table 7),EC50 (Table 7) [µM],Ent. A Max Activity (Table 6),EC50 (Table 6) [µM],Structure (SMILES)
+++ (+++ is >60%),< 1,,,Cc1cccc(C)c1-c1cc2nc(n1)NS(=O)(=O)c1cccc(c1)C(=O)N(CC1CC13CCOCC3)[C@H](CC(C)C)CO2 (stereo partly shown) [Compound 416]
+++ (+++ is >60%),< 1,,,Cc1cccc(C)c1-c1cc2nc(n1)NS(=O)(=O)c1cccc(c1)C(=O)N(Cc1cccn(C)c1=O)[C@H](CC(C)C)CO2 [Compound 417]
,,+++ (+++ is >60%),< 1,COc1ncccc1CN1C(=O)c2cccc(c2)S(=O)(=O)Nc2nc(cc(-c3c(C)cccc3C)n2)OC[C@H]1CC(C)C [Compound 420]
,,+++ (+++ is >60%),< 1,COc1ccncc1CN1C(=O)c2cccc(c2)S(=O)(=O)Nc2nc(cc(-c3c(C)cccc3C)n2)OC[C@H]1CC(C)C [Compound 421]
,,+++ (+++ is >60%),< 1,COc1cccc(CN2C(=O)c3cccc(c3)S(=O)(=O)Nc3nc(cc(-c4c(C)cccc4C)n3)OC[C@H]2CC(C)C)n1 [Compound 423]
,,+++ (+++ is >60%),< 1,Cc1cccc(C)c1-c1cc2nc(n1)NS(=O)(=O)c1cccc(c1)C(=O)N(Cc1ccc(C(C)(C)C)cc1)[C@H](CC(C)C)CO2 [Compound 425]
,,+++ (+++ is >60%),< 1,Cc1cccc(C)c1-c1cc2nc(n1)NS(=O)(=O)c1cccc(c1)C(=O)N(CCOC(C)(C)C)[C@H](CC(C)C)CO2 [Compound 427]
,,+++ (+++ is >60%),< 1,Cc1cccc(C)c1-c1cc2nc(n1)NS(=O)(=O)c1cccc(c1)C(=O)N(C[C@H]1CCOC(C)(C)C1)[C@H](CC(C)C)CO2 [Compound 428]
,,+++ (+++ is >60%),< 1,Cc1cccc(C)c1-c1cc2nc(n1)NS(=O)(=O)c1cccc(c1)C(=O)N(Cc1cnn(C)c1)[C@H](CC(C)C)CO2 [Compound 432]
+ (+ is <30%),,,,Cc1cccc(C)c1-c1cc2nc(n1)NS(=O)(=O)c1cccc(c1)C(=O)N(C)C[C@H](c1ccc(-c3ccc(C(C)(C)C)cc3)cn1)O2 [Compound 509]
+++ (+++ is >60%),< 1,,,Cc1cccc(C)c1-c1cc2nc(n1)NS(=O)(=O)c1cccc(c1)C(=O)N(C)C[C@H](c1ccc(-c3ccc(C(C)(C)C)cc3)cn1)O2 [Compound 510]
,,+ (+ is <30%),,Cc1cccc(C)c1-c1cc2nc(n1)NS(=O)(=O)c1cccc(c1)C(=O)N(C)[C@@H](CC(C)C)[C@H](c1ccc(C(C)(C)C)nc1)O2 [Compound 512]
,,+++ (+++ is >60%),1 to 3,Cc1cccc(C)c1-c1cc2nc(n1)NS(=O)(=O)c1cccc(c1)C(=O)N(C)CC(c1ccc(-c3ccccc3)cn1)O2 (stereo not shown) [Compound 513]
,,+ (+ is <30%),3 to 30,Cc1cccc(C)c1-c1cc2nc(n1)NS(=O)(=O)c1cccc(c1)C(=O)N(Cc1ccccc1)C(C(=O)NCc1ccccc1)CO2 (stereo not shown) [Compound 514]
,,+ (+ is <30%),,Cc1cccc(C)c1-c1cc2nc(n1)NS(=O)(=O)c1cccc(c1)C(=O)N(C)CC(c1ccc(C(N)=O)cc1)O2 (stereo not shown) [Compound 666]
+++ (+++ is >60%),< 1,,,Cc1cccc(C)c1-c1cc2nc(n1)NS(=O)(=O)c1cccc(c1)C(=O)N(C)CC(c1ccc(C3=CCOCC3)cc1)O2 (stereo not shown) [Compound 671]
,,++ (++ is 30-60%),< 1,Cc1cccc(C)c1-c1cc2nc(n1)NS(=O)(=O)c1cccc(c1)C(=O)N(C)CC(c1ccc(C3CC3)cc1)O2 (stereo not shown) [Compound 674]
,,++ (++ is 30-60%),< 1,Cc1cccc(C)c1-c1cc2nc(n1)NS(=O)(=O)c1cccc(c1)C(=O)N(C)CC(c1ccc(C3=CCOCC3)cc1)O2 (stereo not shown) [Compound 675]
+++ (+++ is >60%),< 1,,,COc1ccc(CN2C(=O)c3cccc(c3)S(=O)(=O)Nc3nc(cc(-c4c(C)cccc4C)n3)OC[C@H]2CC2(C(F)(F)F)CC2)cc1 [Compound 679]
+++ (+++ is >60%),< 1,,,CNC(=O)c1ccc(CN2C(=O)c3cccc(c3)S(=O)(=O)Nc3nc(cc(-c4c(C)cccc4C)n3)OC[C@H]2CC2(C(F)(F)F)CC2)cc1 [Compound 683]
+++ (+++ is >60%),< 1,,,Cc1cccc(C)c1-c1cc2nc(n1)NS(=O)(=O)c1cccc(c1)C(=O)N(Cc1ccc(N3CCN(C)CC3)nc1)[C@H](CC1(C(F)(F)F)CC1)CO2 [Compound 684]
+ (+ is <30%),< 1,,,Cc1cccc(C)c1-c1cc2nc(n1)NS(=O)(=O)c1cccc(c1)C(=O)N(CCC(C)(C)C)[C@H](CC1(C(F)(F)F)CC1)CO2 [Compound 686]
,,+++ (+++ is >60%),< 1,Cc1cccc(C)c1-c1cc2nc(n1)NS(=O)(=O)c1cccc(c1)C(=O)N(CCC(C)C)C(CCC1(C(F)(F)F)CC1)CO2 (stereo not shown) [Compound 688]
